The record followed here is patent US5002963A, “3-indolepyruvic acid derivatives and pharmaceutical use thereof” (priority 1987, dated 1991).

Data set [1] in a line: Water solubility. In kind it is physicochemical.
For data set [2], the system named is audiogenic convulsions in DBA2 mice. Kind of data set: Test 6: audiogenic convulsions in DBA2 mice. In kind it is in vivo. Particulars: intravenously, dose not given, one hour before the test. How it is done:
To evaluate whether an increase in kynurenic acid in the brain after administration of IPA could have a protective action on neurons stressed by excitatory aminoacids, the experimental pattern of inducing convulsions in a particular strain of mice (DBA2) by selected sound stimulations was followed. […] The substances were injected intravenously one hour before the test. Then the number of animals showing tonic convulsions was measured.

Where a name gives a salt, the structure may show the parent alone.

With `O=C(O)C(=O)Cc1c[nH]c2ccccc12` [Mg^++ IPA salt, Mg salt of 3-indolepyruvic acid], in data set [1], the “solubility in water (in words)” value is “water soluble”. Besides, the “Animals with convulsions, %” value in data set [2] came out at 29%. Moreover, the Animals with convulsions in data set [2] (number/total) is given as 4/14.
